Measurements as given in patent publication US4151291A, “Ethers of 7-hydroxy-coumarin useful as medicaments” (Unicler, priority 1976, dated 1979).

Experiments:
oral LD50 = details: in vivo
Method: In addition the oral LD50 was determined for the compounds of the invention.

[1] = tested on: pain syndrome provoked in mice by injection of phenylbenzoquinone; test: analgesia test of Siegmund, Cadmus and Lu (phenylbenzoquinone-induced pain syndrome); format: in vivo, mice of Swiss strain; details: oral, 30 minutes before phenylbenzoquinone, extensions counted over 10 minutes vs control
Method: They have in particular been submitted to the test of analgesia of Siegmund, Cadmus and Lu (Proc. Soc. Exp. Biol. Med. 95, 729, 1957) according to which a characteristic pain syndrome is provoked in mice by injection of phenylbenzoquinone.
The animals used are mice of Swiss strain weighing 20±2 grams.
The animals are separated into groups of 10, randomly but are individually submitted to experiments. Each experiment is carried out on at least two groups:
a control group receiving solvent and phenylbenzoquinone
a group treated with test compound.
The test compounds are administered orally, 30 minutes before the injection of the irritant. Each mouse then receives intraperitoneally 0.25 ml of a 0.02% phenylbenzoquinone solution.
The pain syndrome generated by the injection of phenylbenzoquinone consists of extension of the abdomen and the back legs; at the height of the reaction, the flanks of the animal are very contracted. 5 Minutes after the injection of the irritant, the extensions are counted over a period of 10 minutes.
For each group, the mean number of extensions is calculated. The activity (A) of the test compound is determined by comparison between the mean number of extensions in the treated animals (N) and the mean number of extensions in the control animals (N') according to the equation [formula]
The statistical significance of the result thus obtained is evaluated by the non-parametric test of Fisher.

C#CCOc1ccc2c(C)c(CC=C)c(=O)oc2c1 [JB 19, 3-Allyl-4-methyl-7-propargyloxy-coumarin]
LD50 (oral LD50): 1500 mg/kg
Analgesic Activity A ([1]; dose 150 mg/kg): 81%

Cc1cc(=O)oc2cc(OCC#CCN3CCOCC3)ccc12 [JB 12, 4-Methyl-7-(4-morpholino-but-2-ynyloxy)-coumarin]
LD50 (oral LD50): 1500 mg/kg
Analgesic Activity A ([1]; dose 150 mg/kg): 88%

C#CCOc1ccc2c(-c3ccccc3[N+](=O)[O-])cc(=O)oc2c1 [JB 5, 4-o-nitrophenyl-7-propargyloxy-coumarin]
LD50 (oral LD50): > 2000 mg/kg
Analgesic Activity A ([1]; dose 200 mg/kg): 40%

C#CCOc1ccc2c(C)c(CC)c(=O)oc2c1 [JB 4, 3-Ethyl-4-methyl-7-propargyloxy-coumarin]
LD50 (oral LD50): 1000 mg/kg
Analgesic Activity A ([1]; dose 100 mg/kg): 65%

C#CCOc1ccc2ccc(=O)oc2c1 [JB 1, 7-Propargyloxy-coumarin]
LD50 (oral LD50): 1500 mg/kg
Analgesic Activity A ([1]; dose 150 mg/kg): 55%

Cc1cc(=O)oc2cc(OCC#CCN(C)C)ccc12 [JB 16, 4-Methyl-7-(4-dimethylamino-but-2-ynyloxy)-coumarin]
LD50 (oral LD50): 500 mg/kg
Analgesic Activity A ([1]; dose 50 mg/kg): 30%

C#CCOc1ccc2c(C)cc(=O)oc2c1 [JB 2, 4-Methyl-7-propargyloxy-coumarin]
LD50 (oral LD50): 1500 mg/kg
Analgesic Activity A ([1]; dose 150 mg/kg): 98%
